This is an account of results in US20250304537A1 (Repare Therapeutics Inc., priority 2022, published 2025).

For experiment [1], the target named is recombinant human Myt1 (full length PKMYT1) (Homo sapiens (Human), UniProt Q99640). Briefly: Recombinant human Myt1 kinase assay (ADP-Glo). The experiment is classed as biochemical. Conditions: 10 μM ATP. Put shortly: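 Full-length insect-cell-expressed human Myt1 (18 nM final) was preincubated with compound (0.5% DMSO) for 15 min at 22 °C. The reaction ran with 10 μM ATP for 60 min at 30 °C in HEPES buffer with Mg2+/Mn2+ and DTT. ADP formed was read by ADP-Glo luminescence, giving IC50 and % max inhibition.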
Chain of recombinant human Myt1 (full length PKMYT1) (Q99640 whole entry): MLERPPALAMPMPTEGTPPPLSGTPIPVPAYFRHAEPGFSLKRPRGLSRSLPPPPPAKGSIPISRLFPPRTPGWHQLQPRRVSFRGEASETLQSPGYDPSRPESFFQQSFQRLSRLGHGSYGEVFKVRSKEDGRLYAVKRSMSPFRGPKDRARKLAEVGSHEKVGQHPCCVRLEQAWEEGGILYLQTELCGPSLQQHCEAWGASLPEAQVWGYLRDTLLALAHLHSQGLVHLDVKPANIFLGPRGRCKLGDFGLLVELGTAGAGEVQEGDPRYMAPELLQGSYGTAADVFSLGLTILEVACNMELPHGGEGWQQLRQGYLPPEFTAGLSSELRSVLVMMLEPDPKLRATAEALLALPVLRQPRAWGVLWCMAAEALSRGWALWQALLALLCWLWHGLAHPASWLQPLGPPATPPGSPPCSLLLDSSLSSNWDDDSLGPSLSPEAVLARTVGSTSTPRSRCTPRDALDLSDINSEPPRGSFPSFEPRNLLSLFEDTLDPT

Experiment [2] relates to PKMYT1 (CDK1 pThr14) in FUOV1 cells. Briefly: PKMYT1 cell-based activity assay, CDK1 pThr14 AlphaLISA in FUOV1 cells. Conditions: read-out: FUOV-1 CDK1 pThr14 IC50. The method in brief: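 FUOV1 cells were treated with PKMYT1 inhibitor for 2 h at 37 °C, then lysed. CDK1 pThr14 was measured by AlphaLISA, pairing an anti-pThr14 antibody with an anti-total CDK1 antibody (5 nM each). Signal read at 680/615 nm and used to derive IC50.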

Like-named read-outs stand apart in the source and are kept apart here. A value given as a limit tells only on which side of the number the result lay.

As to `Cc1ccc(O)c(C)c1-c1cc(-c2cnccn2)cc(C(N)=O)c1N` [Compound 84], the IC50 in experiment [1] turned out to be 10 nM; in experiment [2] (2 h, 2 h incubation) it was 357 nM.
Take `Cc1ccc2[nH]ncc2c1-c1nc(-c2cccnc2NC2(C)CC(C)(O)C2)nc(C(N)=O)c1N` (stereo not shown) [Compound 901]: the half-inhibitory concentration (IC50) in experiment [1] was less than 3 nM; in experiment [2] (2 h, 2 hours with compound) it was 27 nM.
In the case of `Cc1ccc2[nH]ncc2c1-c1nc(-c2cc(F)ccc2Nc2ncccn2)nc(C(N)=O)c1N` [Compound 472], the IC50 is 6 nM in experiment [1] and 26 nM in experiment [2] (2 h, 2 h compound incubation).
On to `Cc1ccc2[nH]ncc2c1-c1nc(-c2cc(F)ccc2NCC(F)F)nc(C(N)=O)c1N` [Compound 421], for which the concentration for half-maximal inhibition (IC50) was 4 nM in experiment [1] and 40 nM in experiment [2] (2 h, 2 h compound incubation).
Take `Cc1ccc2[nH]ncc2c1-c1cc(-c2cc(Cl)ccn2)nc(C(N)=O)c1N` [Compound 257]: the IC50 in experiment [1] was 12 nM; in experiment [2] (2 h, 2 h incubation) it was 1170 nM.
As for `COc1cccnc1Nc1cc(F)ccc1-c1nc(C(N)=O)c(N)c(-c2c(C)ccc3[nH]ncc23)n1` [Compound 614], the IC50 in experiment [1] was 10 nM; in experiment [2] (2 h, 2 h compound incubation) it was 37 nM.
On to `Cc1ccc(O)c(C)c1-c1cc(-c2nc3ccccc3s2)nc(C(N)=O)c1N` [Compound 58], for which the IC50 in experiment [1] stood at 5 nM; in experiment [2] (2 h incubation), 387 nM.
For the molecule `Cc1ccc2[nH]ncc2c1-c1nc(-c2cccc3cnsc23)nc(C(N)=O)c1N` [Compound 396], the IC50 in experiment [1] was 5 nM; in experiment [2] (2 h, 2 h compound incubation) it was 152 nM.
In the case of `Cc1ccc2[nH]ncc2c1-c1nc(-c2ccc(F)cc2Nc2cc(C3CC3)ncn2)nc(C(N)=O)c1N` [Compound 615], the IC50 is 16 nM in experiment [1] and 515 nM in experiment [2] (2 h, 2 h compound incubation).
On to `Cc1ccc2[nH]ncc2c1-c1cc(-c2ccnc(N3CCOCC3)n2)nc(C(N)=O)c1N` [Compound 198], for which the IC50 was determined as 9 nM in experiment [1] and 970 nM in experiment [2] (2 h, 2 h incubation).
In the case of `Cc1ccc2[nH]ncc2c1-c1nc(-c2cn(C)nc2NC(C)C)nc(C(N)=O)c1N` [Compound 904], the IC50 amounted to 4 nM in experiment [1] and 147 nM in experiment [2] (2 h, 2 hours with compound).
`NC(=O)c1nc(-c2ccccc2)nc(-c2c(Cl)ccc3[nH]ncc23)c1N` [Compound 115, 5-amino-6-(5-chloro-1H-indazol-4-yl)-2-phenylpyrimidine-4-carboxamide]: the IC50 was 15 nM in experiment [1] and 2230 nM in experiment [2] (2 h, 2 h incubation).
`Cc1ccc(O)c(C)c1-c1cc(-c2ncccn2)cc(C(N)=O)c1N` [Compound 78]: the IC50 in experiment [1] came out at 9 nM; in experiment [2] (2 h, 2 h incubation), 326 nM.
Regarding `Cc1ccc2[nH]ncc2c1-c1nc(-c2ccccc2NC(=O)c2cccc(F)c2)nc(C(N)=O)c1N` [Compound 460], the half-inhibitory concentration (IC50) in experiment [1] was found to be 10 nM; in experiment [2] (2 h, 2 h compound incubation), 825 nM.
Consider `Cc1ccc2[nH]ncc2c1-c1cc(-c2ccnc(O[C@H]3CO[C@H]4OCC[C@H]43)n2)nc(C(N)=O)c1N` [Compound 208], for which the concentration for half-maximal inhibition (IC50) worked out at 6 nM in experiment [1] and 106 nM in experiment [2] (2 h, 2 h incubation).
For the molecule `Cc1ccc2[nH]ncc2c1-c1nc(-c2cccnc2Nc2ncccc2F)nc(C(N)=O)c1N` [Compound 621], the IC50 turned out to be 3 nM in experiment [1] and 3 nM in experiment [2] (2 h, 2 h compound incubation).
In the case of `Cc1ccc2[nH]ncc2c1-c1cc(-c2cccc(OCc3ncco3)n2)nc(C(N)=O)c1N` (atropisomer, axis not shown) [Compound 273], the values for the 50% inhibitory concentration (IC50) in experiment [1] and in experiment [2] (2 h incubation) were 716 nM and 4560 nM, respectively.
Take `CO[C@H](COc1nccc(-c2cc(-c3c(C)ccc4[nH]ncc34)c(N)c(C(N)=O)n2)n1)c1ccccc1` (atropisomer, axis not shown) [Compound 309]: the IC50 in experiment [1] was found to be 5 nM; in experiment [2] (2 h, 2 h incubation), 22 nM.
As to `Cc1ccc2[nH]ncc2c1-c1cc(-c2ccnc(OC3CNC3)n2)nc(C(N)=O)c1N` [Compound 194], the IC50 was 10 nM in experiment [1] and 476 nM in experiment [2] (2 h, 2 h incubation).
In the case of `Cc1ccc(-c2nc(C(N)=O)c(N)c(-c3c(C)ccc4[nH]ncc34)n2)c(NC(=O)C2(C)CC2)c1` [Compound 433], the IC50 was 5 nM in experiment [1] and 13 nM in experiment [2] (2 h, 2 h compound incubation).
Regarding `Cc1ccc2[nH]ncc2c1-c1c(N)c(C(N)=O)cc2c1oc1ccccc12` [Compound 418, 3-amino-4-(5-methyl-1H-indazol-4-yl)dibenzo[b,d]furan-2-carboxamide], the IC50 was determined as 27 nM in experiment [1] and 1330 nM in experiment [2] (2 h, 2 h compound incubation).
For `Cc1ccc2[nH]ncc2c1-c1cc(-c2ccnc(OCCc3nccs3)n2)nc(C(N)=O)c1N` [Compound 313], the half-maximal inhibitory concentration (IC50) in experiment [1] was 6 nM; in experiment [2] (2 h, 2 h incubation) it was 137 nM.
Consider `Cc1nccc(Nc2cc(F)ccc2-c2nc(C(N)=O)c(N)c(-c3c(C)ccc4[nH]ncc34)n2)n1` [Compound 525], for which the half-inhibitory concentration (IC50) came to 5 nM in experiment [1] and 19 nM in experiment [2] (2 h, 2 h compound incubation).
For `CCOc1ccccc1-c1nc(C(N)=O)c(N)c(-c2c(C)ccc3[nH]ncc23)n1` [Compound 794], the half-maximal inhibitory concentration (IC50) stood at 53 nM in experiment [1] and 641 nM in experiment [2] (2 h, 2 h compound incubation).
For the molecule `Cc1ccc2[nH]ncc2c1-c1nc(-c2ccccc2NS(C)(=O)=O)nc(C(N)=O)c1N` [Compound 427, 5-amino-6-(5-methyl-1H-indazol-4-yl)-2-(2-(methylsulfonamido)phenyl)pyrimidine-4-carboxamide], the half-inhibitory concentration (IC50) in experiment [1] turned out to be 4 nM; in experiment [2] (2 h, 2 h compound incubation) it was 23 nM.
Regarding `Cc1ccc2[nH]ncc2c1-c1cc(-c2cccc(OCc3ncco3)n2)nc(C(N)=O)c1N` [Compound 267], the IC50 was determined as 4 nM in experiment [1] and 191 nM in experiment [2] (2 h incubation).
On to `Cc1ccc2[nH]ncc2c1-c1cc2c(oc3cccnc32)c(C(N)=O)c1N` [Compound 458, 7-amino-8-(5-methyl-1H-indazol-4-yl)benzofuro[3,2-b]pyridine-6-carboxamide], for which the IC50 is 2 nM in experiment [1] and 142 nM in experiment [2] (2 h, 2 h compound incubation).
Turning to `Cc1ccc2[nH]ncc2c1-c1nc(-c2cc(F)c(F)cc2NC2CC(F)(F)C2)nc(C(N)=O)c1N` [Compound 475], the half-maximal inhibitory concentration (IC50) in experiment [1] was 14 nM; in experiment [2] (2 h, 2 h compound incubation), 138 nM.
With `COCCNc1nccc(-c2cc(-c3c(C)ccc4[nH]ncc34)c(N)c(C(N)=O)n2)n1` [Compound 214, 3-amino-6-(2-((2-methoxyethyl)amino)pyrimidin-4-yl)-4-(5-methyl-1H-indazol-4-yl)picolinamide], the IC50 is 5 nM in experiment [1] and 444 nM in experiment [2] (2 h, 2 h incubation).
Regarding `Cc1ccc(O)c(C)c1-c1nc(-c2ccnnc2)cc(C(N)=O)c1N` [Compound 88], the IC50 in experiment [1] stood at 7 nM; in experiment [2] (2 h incubation), 401 nM.
On to `COCC(Oc1nccc(-c2cc(-c3c(C)ccc4[nH]ncc34)c(N)c(C(N)=O)n2)n1)c1ccccc1` (stereo not shown) [Compound 206], for which the IC50 in experiment [1] stood at 8 nM; in experiment [2] (2 h, 2 h incubation), 554 nM.
Take `CC(=O)Nc1cccc(-c2cc(-c3c(C)ccc(O)c3C)c(N)c(C(N)=O)n2)c1` [Compound 49]: the IC50 was found to be 6 nM in experiment [1] and 137 nM in experiment [2] (2 h, 2 h incubation).
For the molecule `Cc1ccc2[nH]ncc2c1-c1nc(-c2cccc3c2NC(=O)C32CC2)nc(C(N)=O)c1N` [Compound 399], the half-inhibitory concentration (IC50) was determined as 17 nM in experiment [1] and 143 nM in experiment [2] (2 h, 2 h compound incubation).
For the molecule `Cc1ccc2[nH]ncc2c1-c1nc(-c2ccncc2)nc(C(N)=O)c1N` [Compound 100], the IC50 in experiment [1] is 27 nM; in experiment [2] (2 h, 2 h incubation), 1230 nM.
As to `Cc1ccc2[nH]ncc2c1-c1cc(-c2cccc(OCc3ccccn3)n2)nc(C(N)=O)c1N` [Compound 228], the 50% inhibitory concentration (IC50) came to 6 nM in experiment [1] and 387 nM in experiment [2] (2 h, 2 h incubation).
On to `Cc1ccc2[nH]ncc2c1-c1cc(-c2cccc(OCC3COC3)n2)nc(C(N)=O)c1N` [Compound 268], for which the half-maximal inhibitory concentration (IC50) in experiment [1] worked out at 9 nM; in experiment [2] (2 h, 2 h incubation), 261 nM.
With `Cc1ccc2[nH]ncc2c1-c1cc(-c2ccnnc2)nc(C(N)=O)c1N` [Compound 86], the IC50 in experiment [1] was 58 nM; in experiment [2] (2 h incubation), 945 nM.
As to `Cc1ccc(O)c(C)c1-c1cc(-c2cccc(C(F)(F)F)n2)nc(C(N)=O)c1N` [Compound 60], the concentration for half-maximal inhibition (IC50) amounted to 11 nM in experiment [1] and 1820 nM in experiment [2] (2 h, 2 h incubation).
Consider `Cc1ccc2[nH]ncc2c1-c1nc(-c2ccccc2NC(=O)C2(C)CC2(F)F)nc(C(N)=O)c1N` (stereo not shown) [Compound 443], for which the half-inhibitory concentration (IC50) in experiment [1] stood at 3 nM; in experiment [2] (2 h, 2 h compound incubation) it was 26 nM.
Regarding `Cc1ccc2[nH]ncc2c1-c1nc(-c2cccnc2NC[C@H]2CCCO2)nc(C(N)=O)c1N` [Compound 601], the half-inhibitory concentration (IC50) in experiment [1] came out at 3 nM; in experiment [2] (2 h, 2 h compound incubation) it was 467 nM.
For the molecule `COCCCOc1nccc(-c2cc(-c3c(C)ccc4[nH]ncc34)c(N)c(C(N)=O)n2)n1` [Compound 197], the 50% inhibitory concentration (IC50) was found to be 12 nM in experiment [1] and 267 nM in experiment [2] (2 h, 2 h incubation).
For `Cc1ccc2[nH]ncc2c1-c1nc(-c2cc(F)cc3c2NC(=O)C3)nc(C(N)=O)c1N` [Compound 393] the same measures were 6 nM and 288 nM.
With `Cc1ccc2[nH]ncc2c1-c1nc(-c2ccccc2NC(=O)OC(C)(C)C)nc(C(N)=O)c1N` [Compound 474], the IC50 in experiment [1] was 16 nM; in experiment [2] (2 h, 2 h compound incubation), 398 nM.
`Cc1ccc2[nH]ncc2c1-c1cc(-c2ccnc(OC3CCOC3)n2)nc(C(N)=O)c1N` (stereo not shown) [Compound 212]: the IC50 in experiment [1] worked out at 12 nM; in experiment [2] (2 h, 2 h incubation), 192 nM.
For `Cc1ccc2[nH]ncc2c1-c1cc(-c2cccc(OCc3cscn3)n2)nc(C(N)=O)c1N` [Compound 278] the same measures were 5 nM and 158 nM.
Consider `Cc1ccc2[nH]ncc2c1-c1cc(-c2cccnn2)nc(C(N)=O)c1N` [Compound 191], for which the IC50 in experiment [1] stood at 42 nM; in experiment [2] (2 h, 2 h incubation), 390 nM.
`Cc1ccc2[nH]ncc2c1-c1nc(-c2ccc(F)cc2Nc2ncccc2Cl)nc(C(N)=O)c1N` [Compound 611]: the IC50 in experiment [1] is 21 nM; in experiment [2] (2 h, 2 h compound incubation), 22 nM.
